Assay results from ChEMBL document CHEMBL1148047, “Two steroidal alkaloids from a sponge, Corticium sp” (J Nat Prod, 1994).
Values after ≈ are worked out from the molar mass of the structure shown.

Experiments:
[1] = test system: P388; test: Cytotoxicity against mouse P388 cells; assay type: functional, cell-based
[2] = test system: A549; test: Cytotoxicity against human A549 cells; assay type: functional, cell-based
[3] = test system: Lymphocyte; test: Immunomodulatory activity against lymphocytes by lymphocyte viability assay; assay type: functional
[4] = test system: Lymphocyte; test: Immunomodulatory activity against lymphocytes by mixed lymphocyte reaction method; assay type: functional
[5] = test system: Bacillus subtilis; test: Antimicrobial activity against Bacillus subtilis at 50 ug/disk; assay type: functional; conditions: read-out: IZ
[6] = test system: Candida albicans; test: Antimicrobial activity against Candida albicans at 50 ug/disk; assay type: functional; conditions: read-out: IZ
[7] = test system: HT-29; test: Cytotoxicity against human HT-29 cells; assay type: functional, cell-based
[8] = test system: SK-MEL-28; test: Cytotoxicity against human SK-MEL-28 cells; assay type: functional, cell-based
[9] = test system: Lymphocyte; test: Ratio of immunomodulatory activity against lymphocytes by lymphocyte viability assay to immunomodulatory activity against lymphocytes by mixed lymphocyte reaction method; assay type: functional

Q: How did the IC50 [1] turn out when `CC(=O)N[C@H]1CC[C@]2(C)[C@H]3CC[C@]4(C)[C@@H]([C@H](C)CC5=NCCC5=C(C)C)CC[C@H]4C3=CC[C@H]2[C@H]1O` [LOKYSTEROLAMINE B] was run?
A: 1 µg/mL (≈ 2.08 µM)

Q: What about the IC50 [2] of the same molecule?
A: 0.5 µg/mL (≈ 1.04 µM)

Q: And the Activity [3]?
A: >12.5

Q: And the Activity [4]?
A: 0.48

Q: And the zone of inhibition at 50 µg/disc [5]?
A: 8 mm

Q: And the zone of inhibition at 50 µg/disc [6]?
A: 0 mm

Q: What about the IC50 [7] of the same molecule?
A: 1 µg/mL (≈ 2.08 µM)

Q: And the IC50 [8]?
A: > 2 µg/mL

Q: With `CC(C)=C1CCN=C1C[C@@H](C)[C@H]1CC[C@H]2C3=CC[C@H]4[C@@H](O)[C@@H](N(C)C)CC[C@]4(C)[C@H]3CC[C@]12C` [LOKYSTEROLAMINE A] as the molecule, how does the IC50 [1] read?
A: 0.5 µg/mL (≈ 1.07 µM)

Q: And the IC50 [2]?
A: 0.5 µg/mL (≈ 1.07 µM)

Q: What about the Activity [3] of the same molecule?
A: >25

Q: And the “Ratio IC50” value [9]?
A: >187

Q: And the Activity [4]?
A: 0.13

Q: And the zone of inhibition at 50 µg/disc [5]?
A: 19 mm

Q: What about the zone of inhibition at 50 µg/disc [6] of the same molecule?
A: 11 mm

Q: And the IC50 [7]?
A: 1 µg/mL (≈ 2.14 µM)

Q: What about the IC50 [8] of the same molecule?
A: 5 µg/mL (≈ 10.7 µM)
